Some test systems named below: OVCAR-5 ovarian; KM12 colon; RXF 393 renal; OVCAR-8 ovarian; UACC-257 melanoma; MOLT-4 leukemia; LOX IMVI melanoma; A498 renal; HCT-15 colon; SNB-75 CNS.
Test in all cases: DTP human tumour cell line panel, 48 h

The GI50 is the concentration giving 50% growth inhibition. What is called TGI is the concentration at which net growth stops.

Structures are written as SMILES.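 Compound exposure: 48 hours, 5 concentrations, 96-well plates. GI50 is the concentration that inhibits growth by half. Definition used: TGI = concentration required for complete inhibition of growth.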 Bounds are passed on as bounds.

`NC(=O)c1c(NC(=O)c2ccc(C(F)(F)F)cc2Cl)sc2c1CCC(=O)C2`: the GI50 with OVCAR-5 ovarian is 0.468 µM; in the assay with KM12 colon, 0.382 µM; in the assay on RXF 393 renal it was 0.259 µM; with OVCAR-8 ovarian it was 0.456 µM; in the assay with UACC-257 melanoma, 0.654 µM; in the assay with MOLT-4 leukemia, 0.361 µM. Also, the figures for the 50% growth inhibitory concentration (GI50) in the assay on LOX IMVI melanoma and with A498 renal were 0.383 µM and 1.95 µM, respectively. For the same molecule, the TGI in the assay with OVCAR-5 ovarian is 2.33 µM; with KM12 colon, 1.73 µM; with RXF 393 renal it was 0.881 µM; in the assay with OVCAR-8 ovarian it was 12.2 µM; with UACC-257 melanoma, 3.46 µM; with MOLT-4 leukemia, greater than 100 µM. In addition, the TGI amounted to 1.83 µM in the assay on LOX IMVI melanoma and 6.37 µM with A498 renal.

On to `CC1Nc2ccccc2NC1C=C(C#N)C#N` (centres undefined), for which the TGI worked out at 33.4 µM in the assay on OVCAR-5 ovarian; 31.9 µM in the assay on KM12 colon; 37.3 µM in the assay on HCT-15 colon; 31.3 µM with RXF 393 renal; 23.1 µM with OVCAR-8 ovarian; 24.6 µM in the assay with MOLT-4 leukemia. Moreover, the TGI worked out at 25.5 µM with LOX IMVI melanoma and 30.3 µM in the assay with SNB-75 CNS.

Turning to `CN1C=C(C(N)=O)Cc2ccsc21`, the concentration for total growth inhibition (TGI) in the assay with OVCAR-5 ovarian, with KM12 colon, in the assay on HCT-15 colon, in the assay on RXF 393 renal, with OVCAR-8 ovarian and in the assay on UACC-257 melanoma was greater than 100 µM each time. The concentration for total growth inhibition (TGI) in the assay with MOLT-4 leukemia and in the assay with SNB-75 CNS was greater than 100 µM throughout.

With `NNC(=O)C(=O)N/N=C1\CCCC1C(=O)CCC(=O)Nc1cccc(Cl)c1` (centres undefined), the TGI in the assay on OVCAR-5 ovarian, in the assay on KM12 colon, in the assay on RXF 393 renal, in the assay on OVCAR-8 ovarian, in the assay on UACC-257 melanoma and in the assay with MOLT-4 leukemia was greater than 100 µM throughout. In addition, the total growth inhibition concentration (TGI) in the assay with LOX IMVI melanoma and in the assay with SNB-75 CNS was greater than 100 µM in each case.

`O=C1CC[C@@H]2[C@H]3CCC(=O)c4c3c(c3cccc(O)c3c4O)O[C@@]23C(=O)c2cccc(O)c2C(O)=C13`: the GI50 with OVCAR-5 ovarian, in the assay with KM12 colon, in the assay with HCT-15 colon, in the assay on RXF 393 renal, with OVCAR-8 ovarian and in the assay on UACC-257 melanoma was greater than 100 µM each time. The GI50 with MOLT-4 leukemia, with LOX IMVI melanoma and with SNB-75 CNS was greater than 100 µM each time. For the same molecule, the total growth inhibition concentration (TGI) in the assay with OVCAR-5 ovarian, in the assay on KM12 colon, with HCT-15 colon, with RXF 393 renal, in the assay on OVCAR-8 ovarian and in the assay on UACC-257 melanoma was greater than 100 µM in each case. In addition, the TGI in the assay with MOLT-4 leukemia, in the assay with LOX IMVI melanoma and in the assay with SNB-75 CNS was greater than 100 µM each time.

On to `O=C1c2ccccc2-n2c1nc1ccc([N+](=O)[O-])cc1c2=O`, for which the TGI in the assay on OVCAR-5 ovarian is greater than 100 µM; in the assay on KM12 colon, greater than 100 µM; in the assay on HCT-15 colon, greater than 100 µM; with RXF 393 renal it was greater than 100 µM; in the assay with OVCAR-8 ovarian it was 46.6 µM; in the assay on UACC-257 melanoma it was greater than 100 µM. Also, the total growth inhibition concentration (TGI) in the assay with MOLT-4 leukemia is greater than 100 µM; in the assay on LOX IMVI melanoma, 51.7 µM; in the assay on A498 renal it was 35.5 µM.

For the molecule `O=C1C=C(c2ccccc2)NC1(c1ccccc1)c1cc(-c2ccccc2)[nH]c1-c1ccccc1` (centres undefined), the concentration for total growth inhibition (TGI) was greater than 100 µM in the assay on KM12 colon; greater than 100 µM in the assay with HCT-15 colon; 0.586 µM in the assay on RXF 393 renal; greater than 100 µM in the assay on OVCAR-8 ovarian; greater than 100 µM in the assay on UACC-257 melanoma; greater than 100 µM with MOLT-4 leukemia. Also, the concentration for total growth inhibition (TGI) in the assay with A498 renal and with SNB-75 CNS was greater than 100 µM in each case.

Turning to `CN(COC(=O)C(C)(C)C)c1nc(N(C)COC(=O)C(C)(C)C)nc(N(C)COC(=O)C(C)(C)C)n1`, the concentration for total growth inhibition (TGI) with OVCAR-5 ovarian was greater than 100 µM; with KM12 colon, greater than 100 µM; with HCT-15 colon, 43.9 µM; with RXF 393 renal, 41.9 µM; with UACC-257 melanoma, greater than 100 µM; with MOLT-4 leukemia it was greater than 100 µM. Further, the total growth inhibition concentration (TGI) with A498 renal and in the assay with SNB-75 CNS was greater than 100 µM throughout.

Take `CC(=O)CC(=O)Nc1ccc(OS(N)(=O)=O)cc1`: the TGI with OVCAR-5 ovarian, with KM12 colon, with HCT-15 colon, with RXF 393 renal, in the assay on OVCAR-8 ovarian and in the assay with UACC-257 melanoma was greater than 100 µM each time. The TGI in the assay on MOLT-4 leukemia, with A498 renal and in the assay on SNB-75 CNS was greater than 100 µM in each case.

On to `CCOC(=O)c1c(C)n(Cc2ccc(Cl)cc2Cl)c2c1cc(O)c1[nH]c(Cc3ccccc3)nc12`, for which the GI50 was 3.65 µM in the assay with OVCAR-5 ovarian; 2.05 µM with KM12 colon; 3.94 µM in the assay on HCT-15 colon; 2.4 µM in the assay on RXF 393 renal; 3.19 µM in the assay with OVCAR-8 ovarian; 19.3 µM with UACC-257 melanoma. For the same molecule, the GI50 in the assay with MOLT-4 leukemia is 2.3 µM; in the assay on LOX IMVI melanoma it was 1.89 µM; in the assay on SNB-75 CNS it was 5.89 µM. In addition, the TGI in the assay on OVCAR-5 ovarian came to 9.36 µM; with KM12 colon, 4.62 µM; with HCT-15 colon, 18.5 µM; with RXF 393 renal, 5.23 µM; in the assay with OVCAR-8 ovarian, 11 µM; with UACC-257 melanoma it was 39 µM. Also, the TGI with MOLT-4 leukemia is 5.27 µM; in the assay with LOX IMVI melanoma it was 3.66 µM; in the assay with SNB-75 CNS it was 30.8 µM.

Turning to `O=C1c2ccccc2C(=O)N1CCN(CCN1C(=O)c2ccccc2C1=O)Cc1ccccc1`, the TGI in the assay on KM12 colon, in the assay with HCT-15 colon, in the assay on RXF 393 renal, in the assay with OVCAR-8 ovarian, in the assay on UACC-257 melanoma and in the assay with MOLT-4 leukemia was greater than 100 µM in each case. Besides, the concentration for total growth inhibition (TGI) in the assay on LOX IMVI melanoma and in the assay with A498 renal was greater than 100 µM in each case.

Take `COc1cc(/C=C2\CC3C4CC=C5C[C@@H](N6CCCC6)CC[C@]5(C)C4CC[C@]3(C)[C@H]2OC(C)=O)ccc1OCCCn1ccnc1` (some centres undefined): the GI50 was 7.15 µM in the assay on OVCAR-5 ovarian; 0.63 µM in the assay on KM12 colon; 0.135 µM in the assay on HCT-15 colon; 0.704 µM with RXF 393 renal; 0.774 µM in the assay with OVCAR-8 ovarian; 2.29 µM in the assay with UACC-257 melanoma. Moreover, the GI50 is 0.206 µM with MOLT-4 leukemia and 2.66 µM in the assay with A498 renal. The total growth inhibition concentration (TGI) worked out at 15.3 µM in the assay on OVCAR-5 ovarian; 4.02 µM in the assay on KM12 colon; 0.483 µM in the assay on HCT-15 colon; 2.08 µM in the assay with RXF 393 renal; 2.79 µM in the assay on OVCAR-8 ovarian; 5.27 µM in the assay with UACC-257 melanoma. Further, the TGI was greater than 15.4 µM in the assay with MOLT-4 leukemia and 5.18 µM in the assay with A498 renal.

Values taken from PubChem BioAssay (NCI).
